# PMC3879368, “Characterisation of a Multi-ligand Binding Chemoreceptor CcmL (Tlp3) of Campylobacter jejuni” (PLoS Pathogens, 2014)
# Several values for one entry are separate records, joined by “and”; a condition that tells them apart may be missing. Identical values can stand only once. Entries after “also recorded” stand apart in the source; their conditions may differ. Like-named read-outs stand apart in the source and are kept apart here.
# Tests used:
# [1] = test system: recombinant Tlp3 periplasmic sensory domain peptide; experiment: 96-well plate binding assay; set-up: species or system Campylobacter jejuni; key: Y: positive binding significantly above background; N: binding not significantly above background; conditions: non-covalent presentation
# Method: (§1) The array assay presents the compounds covalently bound to an epoxide group resulting in a high probability of a single molecular orientation. The plate assay relies on non-covalent charge and hydrophobic/hydrophilic interactions for presentation of the molecules offering a different presentation to the array.
# (§2) Amino acid and small molecule arrays and plate based binding assays were performed as previously described.. […] SPR experiments were performed using a Biacore T100 biosensor system (GE- healthcare) at 25°C in 1× PBS pH 7.2 at a flow rate of 30 µl/min. […] Amino acids were prepared in 1 × PBS pH 7.2 and serially diluted from 0.0125 to 0.2 mM. The amino acids were loaded to the sensor chip using single-cycle kinetics, i.e. after the injection of five amino acid dilutions the chip was regenerated with EDTA. Subsequently, the chip was re-loaded with Ni^2+ and His-Tlp3 before the injection of the next amino acid to be tested. A 10 min dissociation time was allowed after the addition of each analyte. SPR signals were analyzed using the Biacore Evaluation software to determine KD.
# [2] = target: His-Tlp3 (Campylobacter jejuni, UniProt Q0P864); experiment: biochemical; format: binding; conditions: for SPR interaction with Tlp3 (in words): two-fold serial dilution between 12.5 and 200 µM
# Sequence of His-Tlp3 (Q0P864 entry or part of it): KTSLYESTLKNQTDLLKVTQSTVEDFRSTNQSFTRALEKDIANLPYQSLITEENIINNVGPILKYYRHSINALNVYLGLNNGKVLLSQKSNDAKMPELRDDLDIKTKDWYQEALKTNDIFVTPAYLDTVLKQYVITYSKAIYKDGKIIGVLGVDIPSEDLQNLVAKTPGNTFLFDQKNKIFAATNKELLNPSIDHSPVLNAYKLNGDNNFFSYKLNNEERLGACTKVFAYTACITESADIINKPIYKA
# Method: as §2
# All interactions present were tested with a two-fold serial dilution between 12.5 and 200 µM. (TIF) Click here for additional data file.
# [3] = test system: C. jejuni 11168-O; format: cell-based, Campylobacter jejuni; conditions: for Chemotactic response: nutrient depleted chemotaxis assay, 11168-O vs Δtlp3; as to Chemotactic response: key: +: positive response (chemoattractant); −: negative response (chemorepellent)
# [4] = test system: recombinant Tlp3 periplasmic sensory domain peptide; experiment: Amino acid and small molecule array binding assay; set-up: species or system Campylobacter jejuni; key: Y: positive binding significantly above background; N: binding not significantly above background; conditions: compounds covalently bound to an epoxide group
# Method: as §1, §2
# [5] = test system: recombinant Cj1564 (Tlp3) periplasmic sensory domain peptide; experiment: 1H STD-NMR analysis, single ligand and competition; format: binding, Campylobacter jejuni; conditions: for STD-NMR binding to Tlp3 (in words): ligand alone with Tlp3; for Binding preference in competition STD experiments: two ligands together with Tlp3
# Method: Recombinant Tlp3 (1 mg/mL, 100 µL) dissolved in D2O (99.99% D Cambridge Isotopes) containing 50 mM NaCl and 50 mM KH2PO4 and added to various ligands (1 mg/mL, 150 µL ∼150 mole equivalents) also dissolved in D2O (99.99% D Cambridge Isotopes) containing 50 mM NaCl and 50 mM KH2PO4 to give a total volume of 250 µL in a 3 mm NMR tube for NMR analysis. Control samples were prepared in an identical manner without Tlp3 added. All NMR experiments were performed on a Bruker Avance 600 MHz spectrometer, equipped with a 5-mm TXI probe with triple axis gradients at 283 K without sample spinning. ^1H NMR spectra were acquired with 32 scans, a 2 s relaxation delay over a spectral width of 6000 Hz. Solvent suppression of the residual HDO peak was achieved by continuous low-power presaturation pulse during the relaxation delay. […] A 100 µs delay between each soft pulse was applied, resulting in a total saturation time of 2 s and 2 K scans.
# Data were obtained with an interspersed acquisition of pseudo-two-dimensional on-resonance and off-resonance spectra in order to minimize the effects of temperature and magnet instability. On- and off-resonance spectra were processed separately, and the final STD-NMR spectrum was obtained by subtracting the individual on- and off-resonance spectra, resulting in less subtraction artefacts. Relative STD effects were calculated according to the equation ASTD = (I0−Isat)/I0 = ISTD/I0 by comparing the intensity of the signals in the STD-NMR spectrum (ISTD) with signal intensities of a reference spectrum (I0). The STD signal with the highest intensity was set to 100% and other STD signals were calculated accordingly. A spin lock field of 10 ms was applied to remove unwanted background protein signals. […] Control STD-NMR experiments were performed using an identical experimental setup and the same ligand concentration but in the absence of the protein.
# [6] = test system: C. jejuni 11168-O Δtlp3; format: cell-based, Campylobacter jejuni; conditions: for Increase in bacterial numbers around ligand plug, Δtlp3 compared to wild type: repellents; for Viable counts of C. jejuni associated with ligand plug: Δtlp3, plug with 2 mM ligand, 37°C, 4 h; for Reduction in bacterial numbers migrating towards ligand, Δtlp3 compared to wild type: attractants
# [7] = wild type 11168-O, plug with 2 mM ligand, 37°C, 4 h
# [8] = Binding Affinity (KD), SPR, 25°C, 1× PBS pH 7.2
Compound,Plate assay [1],Array binding [4],STD-NMR binding to Tlp3 (in words) ([5]; 283 K),"Increase in bacterial numbers around ligand plug, Δtlp3 compared to wild type [6] [log]",Viable counts of C. jejuni associated with ligand plug [6],Chemotactic response [3],"Viable counts of C. jejuni associated with ligand plug [3, 7]","Kd [2, 8]","Reduction in bacterial numbers migrating towards ligand, Δtlp3 compared to wild type [6] [log]",other results
O=C(O)CCC(=O)C(=O)O [α-ketoglutarate],Y,Y,,,,,,,,"Kd ([2]; SPR, 25°C, 1× PBS pH 7.2, read-out: Binding Affinity (KD)): 296 µM; Chemotaxis assay outcome (in words) ([3]; data not shown): not definitive"
N=C(N)NCCC[C@H](N)C(=O)O [Arginine],Y,N,Binding was observed,1,6.8 × 10^7 cfu/ml,−,1.3 × 10^6 cfu/ml,,,Binding preference in competition STD experiments [5]: preferential binding of arginine over lysine
Cc1ncc(C[n+]2csc(CCO)c2C)c(N)n1 [Thiamine],Y,,,1,9 × 10^6 cfu/ml,−,,< 50 µM,,Viable counts of C. jejuni associated with ligand plug [3]: 4 × 10^5 cfu/ml
O=C(O)CCC(=O)O [Succinic Acid],Y,,,1,2 × 10^7 cfu/ml,−,,33.2 µM,,Viable counts of C. jejuni associated with ligand plug [3]: 1.5 × 10^6 cfu/ml
NC(=O)C[C@H](N)C(=O)O [asparagine],,,,,,,,,,SPR interaction with Tlp3 (in words) [2]: No interaction observed
N[C@H]1C(O)O[C@H](CO)[C@@H](O)[C@@H]1O (stereo partly shown) [Glucosamine],Y,,No signals were detected,3,7.8 × 10^6 cfu/ml,−,1.68 × 10^3 cfu/ml,7.77 µM,,Dissociation rate from Tlp3 (in words) ([2]; SPR): slow disassociation rates
C[C@H](N)C(=O)O [alanine],,,,,,,,,,SPR interaction with Tlp3 (in words) [2]: No interaction observed
c1ncc2nc[nH]c2n1 [Purine],Y,,Binding was observed,,1.08 × 10^5 cfu/ml,+,1.4 × 10^6 cfu/ml,38.3 µM,1,"STD effect of H2 protons, fold lesser than H6 ([5]; pyrimidine ring protons, 283 K): ~5 fold; Binding preference in competition STD experiments [5]: binds preferentially over lysine; also recorded: binds preferentially over arginine"
CC[C@H](C)[C@H](N)C(=O)O [Isoleucine],Y,Y,Binding was observed,,3.6 × 10^2 cfu/ml,+,6 × 10^6 cfu/ml,,4,Binding preference in competition STD experiments [5]: binds preferentially over arginine; also recorded: binds preferentially over lysine
O=C(O)CC(O)C(=O)O (stereo not shown) [Malic Acid],Y,,No signals were detected,,1.13 × 10^3 cfu/ml,+,9 × 10^5 cfu/ml,,2,Dissociation rate from Tlp3 (in words) ([2]; SPR): slow disassociation rates
O=C(O)/C=C/C(=O)O [Fumaric Acid],Y,,,,9 × 10^2 cfu/ml,+,4.14 × 10^6 cfu/ml,,4,Kd [2]: > 10000 µM
NCCCC[C@H](N)C(=O)O [Lysine],Y,N,Binding was observed,2,2.4 × 10^5 cfu/ml,−,2.2 × 10^3 cfu/ml,~2.8 µM and 2.8 µM,,"Binding affinity of lysine relative to arginine, fold stronger ([2]; ratio of SPR KD values): ~14 fold"
N[C@@H](CC(=O)O)C(=O)O [Aspartate],Y,N,,,3.7 × 10^3 cfu/ml,+,7.8 × 10^6 cfu/ml,,3,
